US20100029752A1, “NOVEL COMPOUNDS, PHARMACEUTICAL COMPOSITIONS CONTAINING SAME, AND METHODS OF USE FOR SAME” (priority 2005, published 2010)
In brackets after ≈: the same amount, converted by molar mass.

Columns and labels:
[1] = system: OV; test: XTT cytotoxicity assay (OV); format: cell-based; conditions: (OV) cells
Experimental: The XTT assay is a non-radioactive alternative for the [^51Cr] release cytotoxicity assay. XTT is a tetrazolium salt that is reduced to a formazan dye only by metabolically active, viable cells. The reduction of XTT is measured spectrophotometrically as OD490-OD650. After 72 hours of incubation, cells are incubated for 4 hours with the XTT reagent as per manufacturer's instructions (Cell Proliferation Kit 11 (XTT) Roche). Plates are read at OD490 and OD650 on a Molecular Devices SpectraMax Plus Spectrophotometer. Three wells containing the XTT reagent without cells serve as the plate blank. XTT data are reported as OD490-OD650. Averages and standard error of the mean are computed using SOFTmax Pro software (Molecular Dynamics). The IC50 for the compounds is defined as the concentration of drug leading to a 50% reduction in OD490-OD650 compared to controls. The OD490-OD650 are computed by the SOFTmax PRO software (Molecular Devices) for each compound concentration. IC50 is calculated by linear regression, plotting the FAS activity as percent of control versus drug concentrations. Linear regression, best-fit line, r^2, and 95% confidence intervals are determined using Prism Version 3.0 (Graph Pad Software).

[2] = biological target: T1, purified human FAS (Homo sapiens, UniProt P49327); test: FAS enzymatic activity (malonyl-CoA dependent NADPH oxidation); format: biochemical; conditions: purified FAS from ZR-75-1 cells, OD340
T1 construct: Human FAS was purified from cultured ZR-75-1 human breast cancer cells obtained from the American Type Culture Collection; endogenous in cells; host or cells: ZR-75-1 human breast cancer cells (ATCC); enzyme purified by PEG precipitation and Mono Q chromatography
Experimental: Human FAS was purified from cultured ZR-75-1 human breast cancer cells obtained from the American Type Culture Collection. The procedure, adapted from Linn et al., 1981, and Kuhajda et al., 1994, utilizes hypotonic lysis, successive polyethyleneglycol (PEG) precipitations, and anion exchange chromatography. ZR-75-1 cells are cultured at 37° C. with 5% CO2 in RPMI culture medium with 10% fetal bovine serum, penicillin and streptomycin.
Ten T150 flasks of confluent cells are lysed with 1.5 ml lysis buffer (20 mM Tris-HCl, pH 7.5, 1 mM EDTA, 0.1 mM phenylmethanesulfonyl fluoride (PMSF), 0.1% Igepal CA-630) and dounce homogenized on ice for 20 strokes. The lysate is centrifuged in JA-20 rotor (Beckman) at 20,000 rpm for 30 minutes at 4° C. and the supernatant is brought to 42 ml with lysis buffer. A solution of 50% PEG 8000 in lysis buffer is added slowly to the supernatant to a final concentration of 7.5%. After rocking for 60 minutes at 4° C., the solution is centrifuged in JA-20 rotor (Beckman) at 15,000 rpm for 30 minutes at 4° C. Solid PEG 8000 is then added to the supernatant to a final concentration of 15%. After the rocking and centrifugation is repeated as above, the pellet is resuspended overnight at 4° C. in 10 ml of Buffer A (20 mM K2HPO4, pH 7.4). After […] filtration, the protein solution is applied to a Mono Q 5/5 anion exchange column (Pharmacia). The column is washed for 15 minutes with buffer A at 1 ml/minute, and bound material is eluted with a linear 60-ml gradient over 60 minutes to 1 M KCl. FAS (MW˜270 kD) typically elutes at 0.25 M KCl in three 0.5 ml fractions identified using 4-15% SDS-PAGE with Coomassie G250 stain (Bio-Rad). FAS protein concentration is determined using the Coomassie Plus Protein Assay Reagent (Pierce) according to manufacturer's specifications using BSA as a standard. This procedure results in substantially pure preparations of FAS (>95%) as judged by Coomassie-stained gels.
FAS activity is measured by monitoring the malonyl-CoA dependent oxidation of NADPH spectrophotometrically at OD340 in 96-well plates (Dils et al and Arslanian et al, 1975). Each well contains 2 μg purified FAS, 100 mM K2HPO4, pH 6.5, 1 mM dithiothreitol (Sigma), and 187.5 μM β-NADPH (Sigma). Stock solutions of inhibitors are prepared in DMSO at 2, 1, and 0.5 mg/ml resulting in final concentrations of 20, 10, and 5 μg/ml when 1 μl of stock is added per well. For each experiment, cerulenin (Sigma) is run as a positive control along with DMSO controls, inhibitors, and blanks (no FAS enzyme) all in duplicate.
The assay is performed on a Molecular Devices SpectraMax Plus Spectrophotometer. The plate containing FAS, buffers, inhibitors, and controls are placed in the spectrophotometer heated to 37° C. Using the kinetic protocol, the wells are blanked on duplicate wells containing 100 μl of 100 mM K2HPO4, pH 6.5 and the plate is read at OD340 at 10 sec intervals for 5 minutes to measure any malonyl-CoA independent oxidation of NADPH. The plate is removed from the spectrophotometer and malonyl-CoA (67.4 μM, final concentration per well) and […] (61.8 μM, final concentration per well) are added to each well except to the blanks. The plate is read again as above with the kinetic protocol to measure the malonyl-CoA dependent NADPH oxidation. The difference between the ΔOD340 for the malonyl-CoA dependent and non-malonyl-CoA dependent NADPH oxidation is the specific FAS activity. Because of the purity of the FAS preparation, non-malonyl-CoA dependent NADPH oxidation is negligible.
The concentration of compound yielding 50% inhibition of FAS is the IC50. Graphs of ΔOD340 versus time are plotted by the SOFTmax PRO software (Molecular Devices) for each compound concentration. Computation of linear regression, best-fit line, r^2, and 95% confidence intervals are calculated using Prism Version 3.0 (Graph Pad Software).

T1 sequence (P49327 whole entry): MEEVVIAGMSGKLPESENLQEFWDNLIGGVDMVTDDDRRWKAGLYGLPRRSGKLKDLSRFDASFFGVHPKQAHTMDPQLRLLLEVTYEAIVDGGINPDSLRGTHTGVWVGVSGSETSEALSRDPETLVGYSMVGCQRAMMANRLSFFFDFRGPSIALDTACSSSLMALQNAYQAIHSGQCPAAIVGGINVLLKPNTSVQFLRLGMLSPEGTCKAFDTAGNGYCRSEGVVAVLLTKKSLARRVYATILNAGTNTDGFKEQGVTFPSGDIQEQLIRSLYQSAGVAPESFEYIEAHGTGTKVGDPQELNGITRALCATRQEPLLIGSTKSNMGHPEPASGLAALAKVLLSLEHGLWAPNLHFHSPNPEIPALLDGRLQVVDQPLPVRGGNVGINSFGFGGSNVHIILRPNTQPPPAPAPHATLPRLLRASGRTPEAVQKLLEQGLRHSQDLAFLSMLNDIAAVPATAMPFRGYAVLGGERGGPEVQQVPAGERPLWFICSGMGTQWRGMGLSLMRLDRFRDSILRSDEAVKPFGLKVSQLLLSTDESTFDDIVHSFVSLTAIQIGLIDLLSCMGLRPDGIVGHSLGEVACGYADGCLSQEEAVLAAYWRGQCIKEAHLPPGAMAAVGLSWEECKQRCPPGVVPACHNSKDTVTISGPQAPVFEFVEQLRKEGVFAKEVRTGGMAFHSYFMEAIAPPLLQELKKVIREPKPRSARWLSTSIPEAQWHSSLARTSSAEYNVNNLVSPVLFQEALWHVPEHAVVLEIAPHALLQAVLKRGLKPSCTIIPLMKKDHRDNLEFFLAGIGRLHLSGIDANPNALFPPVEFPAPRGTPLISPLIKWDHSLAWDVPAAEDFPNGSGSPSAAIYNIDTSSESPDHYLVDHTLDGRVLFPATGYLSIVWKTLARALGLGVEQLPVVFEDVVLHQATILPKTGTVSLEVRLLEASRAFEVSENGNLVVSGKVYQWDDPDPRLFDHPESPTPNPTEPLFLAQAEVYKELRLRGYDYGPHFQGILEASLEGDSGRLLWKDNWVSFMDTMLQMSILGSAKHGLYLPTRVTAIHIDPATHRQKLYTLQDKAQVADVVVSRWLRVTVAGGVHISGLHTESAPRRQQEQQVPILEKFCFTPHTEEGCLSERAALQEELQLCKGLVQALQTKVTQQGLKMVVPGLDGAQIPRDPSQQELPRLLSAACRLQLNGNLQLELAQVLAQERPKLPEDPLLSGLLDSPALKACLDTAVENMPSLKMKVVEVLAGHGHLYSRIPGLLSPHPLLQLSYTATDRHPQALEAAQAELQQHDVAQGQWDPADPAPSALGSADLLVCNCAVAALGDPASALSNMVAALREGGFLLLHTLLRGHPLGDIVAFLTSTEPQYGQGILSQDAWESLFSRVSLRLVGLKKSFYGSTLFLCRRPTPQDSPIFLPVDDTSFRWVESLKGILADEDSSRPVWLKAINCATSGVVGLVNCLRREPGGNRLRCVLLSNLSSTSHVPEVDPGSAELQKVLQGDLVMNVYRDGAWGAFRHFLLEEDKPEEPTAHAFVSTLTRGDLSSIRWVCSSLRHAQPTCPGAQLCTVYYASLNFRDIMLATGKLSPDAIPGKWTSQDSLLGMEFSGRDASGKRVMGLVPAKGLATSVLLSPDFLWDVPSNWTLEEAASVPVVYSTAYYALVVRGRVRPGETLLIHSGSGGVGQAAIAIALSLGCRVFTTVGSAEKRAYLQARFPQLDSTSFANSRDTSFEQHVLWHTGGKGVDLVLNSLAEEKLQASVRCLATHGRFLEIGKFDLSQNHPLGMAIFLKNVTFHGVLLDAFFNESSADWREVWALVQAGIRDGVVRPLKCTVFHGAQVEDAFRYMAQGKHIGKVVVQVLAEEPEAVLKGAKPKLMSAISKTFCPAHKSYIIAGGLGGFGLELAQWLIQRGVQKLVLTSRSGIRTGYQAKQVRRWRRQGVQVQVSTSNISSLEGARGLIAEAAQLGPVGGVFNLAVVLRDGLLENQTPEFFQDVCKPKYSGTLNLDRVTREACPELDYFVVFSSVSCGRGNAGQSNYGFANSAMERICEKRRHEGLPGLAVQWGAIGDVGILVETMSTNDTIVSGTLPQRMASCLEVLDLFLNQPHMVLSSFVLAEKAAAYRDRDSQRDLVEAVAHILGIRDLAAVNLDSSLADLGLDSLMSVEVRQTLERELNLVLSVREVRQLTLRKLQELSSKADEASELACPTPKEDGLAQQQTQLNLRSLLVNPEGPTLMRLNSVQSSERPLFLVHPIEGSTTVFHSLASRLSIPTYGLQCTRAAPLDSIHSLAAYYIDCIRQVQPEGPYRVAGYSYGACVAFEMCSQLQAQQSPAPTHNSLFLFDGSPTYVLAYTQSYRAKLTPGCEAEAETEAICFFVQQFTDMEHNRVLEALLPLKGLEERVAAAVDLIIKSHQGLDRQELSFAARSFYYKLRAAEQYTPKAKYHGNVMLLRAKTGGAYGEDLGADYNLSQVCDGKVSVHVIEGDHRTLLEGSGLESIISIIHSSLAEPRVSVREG

**Q.** Which IC50 [1] does the source give for `CCCCCCCCNC(=O)c1cc(O)cs1` here?
**A.** 9.5 µg/mL (≈ 37.2 µM)

**Q.** What about the “FAS (IC50)” value [2] of the same molecule?
**A.** Neg

**Q.** What does the source list for `CCCCCCCCNC(=O)c1cc(O)c(C(=O)OC)s1`?
**A.** IC50 [1]: 37.1 µg/mL (≈ 118 µM); FAS (IC50) [2]: Neg

**Q.** With `COC(=O)c1sc(C(=O)NNc2ccc(Cl)cc2)cc1O` as the molecule, how does the IC50 [1] read?
**A.** 50 ± 5 µg/mL (≈ 153 µM)

**Q.** What about the IC50 [2] of the same molecule?
**A.** 230 µM

**Q.** Which results are given for `C=CCNC(=O)c1cc(O)c(C(=O)OC)s1`?
**A.** IC50 [1]: > 80 µg/mL; FAS (IC50) [2]: Neg

**Q.** For `COC(=O)c1sc(C(=O)O)cc1O`, which IC50 [1] is on record?
**A.** > 80 µg/mL

**Q.** What about the “FAS (IC50)” value [2] of the same molecule?
**A.** Neg

**Q.** `CCCCCCCCNNC(=O)c1cc(O)c(C(=O)OC)s1` was tested. Which IC50 [1] did it give?
**A.** 77.1 µg/mL (≈ 235 µM)

**Q.** And the “FAS (IC50)” value [2]?
**A.** Neg
